Data: patent US20070160664A1, “Pharmaceutical compositions comprising of proton pump inhibitor and prokinetic agent” (PANACEA BIOTEC LIMITED, priority 2004, published 2007)

Assay: Dissolution of domperidone co-processed with an organic acid (developmental studies)
Format: physicochemical
Settings: alkaline pH conditions encountered in the gastro-intestinal tract
Excerpt: According to a preferred embodiment of the invention, domperidone is co-processed with an organic acid in the ratio of from about 1:0.25 to about 0.25:1, preferably from about 1:0.5 to about 0.5:1, most preferably about 1:1. The co-processing may be aided by dissolving the two ingredients with the help of heat followed by cooling, when the dissolved material separates out. The material separated out may be removed and dried. The co-processed material may be incorporated into dosage forms such as tablets, which may further be combined with enteric coated tablets of proton pump inhibitor and an immediate release tablet of domperidone, in a hard gelatin capsule.

O=c1[nH]c2ccccc2n1CCCN1CCC(n2c(=O)[nH]c3cc(Cl)ccc32)CC1 [domperidone]
dissolution: improved dissolution
